Experimental data from patent US12077503B2, “Substituted cyclic amides and their use as herbicides” (FMC CORPORATION, priority 2015, dated 2024).

What was measured:
Format in all cases: in vivo
[1] = test system: giant foxtail (Setaria faberi); experiment: Test G Pre-Emergence Protocol; conditions: Setaria faberi, pre-emergence, 312 h, evaluated after 13 days; for pest or weed control at 15.625 g/ha: 15.625 g ai/ha; for pest or weed control at 15.625 g/ha / pest or weed control at 250 g/ha: read-out: Foxtail, Giant damage rating (100=total damage to plant; 0=no damage to plant); for pest or weed control at 62.5 g/ha: 62.5 g ai/ha, 100=total damage to plant, 0=no damage to plant, read-out: plant damage rating, Foxtail, Giant; for pest or weed control at 250 g/ha: 250 g ai/ha
Procedure, shortened: (§1)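 Test compound in 0.5% Tween 20 acetone/water (50:50) was applied at three rates (15.625, 62.5, 250 g/ha) to soil sown one day earlier. After 13 days plants were scored for injury, where 0 means unaffected and 100 means completely damaged.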

[2] = test system: barnyardgrass (Echinochloa crus-galli); experiment: Test G Pre-Emergence Protocol; conditions: Echinochloa crus-galli, pre-emergence, 312 h, evaluated after 13 days; for pest or weed control at 15.625 g/ha: 15.625 g ai/ha, read-out: Barnyard grass damage rating (100=total damage to plant; 0=no damage to plant); for pest or weed control at 62.5 g/ha: 62.5 g ai/ha, 100=total damage to plant, 0=no damage to plant, read-out: plant damage rating, Barnyardgrass; for pest or weed control at 250 g/ha: 250 g ai/ha, read-out: Barnyardgrass damage rating (100=total damage to plant; 0=no damage to plant)
Procedure, shortened: as §1

corn (Zea mays) [3] = experiment: Test G Pre-Emergence Protocol; conditions: Zea mays, pre-emergence, 312 h, evaluated after 13 days; for plant injury at 15.625 g/ha: 15.625 g ai/ha; for plant injury at 15.625 g/ha / plant injury at 250 g/ha: read-out: Corn damage rating (100=total damage to plant; 0=no damage to plant); for plant injury at 62.5 g/ha: 62.5 g ai/ha, 100=total damage to plant, 0=no damage to plant, read-out: plant damage rating, Corn; for plant injury at 250 g/ha: 250 g ai/ha
Procedure, shortened: as §1

[4] = test system: velvetleaf (Abutilon theophrasti); experiment: Test G Pre-Emergence Protocol; conditions: Abutilon theophrasti, pre-emergence, 312 h, evaluated after 13 days; for pest or weed control at 15.625 g/ha: 15.625 g ai/ha; for pest or weed control at 15.625 g/ha / pest or weed control at 250 g/ha: read-out: Velvetleaf damage rating (100=total damage to plant; 0=no damage to plant); for pest or weed control at 62.5 g/ha: 62.5 g ai/ha, 100=total damage to plant, 0=no damage to plant, read-out: plant damage rating, Velvetleaf; for pest or weed control at 250 g/ha: 250 g ai/ha
Procedure, shortened: as §1

[5] = test system: ivy-leaved morning glory (Ipomoea hederacea); experiment: Test G Pre-Emergence Protocol; conditions: Ipomoea, pre-emergence, 312 h, evaluated after 13 days; for pest or weed control at 15.625 g/ha: 15.625 g ai/ha, read-out: Morning-glory, Ivy-leaved damage rating (100=total damage to plant; 0=no damage to plant); for pest or weed control at 62.5 g/ha: 62.5 g ai/ha, 100=total damage to plant, 0=no damage to plant, read-out: plant damage rating, Morningglory, Ivy-leaved; for pest or weed control at 250 g/ha: 250 g ai/ha, read-out: Morningglory, Ivy-leaved damage rating (100=total damage to plant; 0=no damage to plant)
Procedure, shortened: as §1

[6] = test system: redroot pigweed (Amaranthus retroflexus); experiment: Test G Pre-Emergence Protocol; conditions: Amaranthus retroflexus, pre-emergence, 312 h, evaluated after 13 days; for pest or weed control at 15.625 g/ha: 15.625 g ai/ha; for pest or weed control at 15.625 g/ha / pest or weed control at 250 g/ha: read-out: Pigweed, Redroot damage rating (100=total damage to plant; 0=no damage to plant); for pest or weed control at 62.5 g/ha: 62.5 g ai/ha, 100=total damage to plant, 0=no damage to plant, read-out: plant damage rating, Pigweed, Redroot; for pest or weed control at 250 g/ha: 250 g ai/ha
Procedure, shortened: as §1

[7] = test system: giant foxtail (Setaria faberi); experiment: Test G Post-Emergence Protocol; conditions: Setaria faberi, post-emergence, 312 h; for pest or weed control at 15.625 g/ha: 15.625 g ai/ha, evaluated after 13 days (100=total damage to plant; 0=no damage to plant), read-out: Foxtail, Giant damage rating; for pest or weed control at 62.5 g/ha: 62.5 g ai/ha, read-out: Foxtail, Giant damage rating (100=total damage to plant; 0=no damage to plant); for pest or weed control at 62.5 g/ha / pest or weed control at 250 g/ha: evaluated after 13 days; for pest or weed control at 250 g/ha: 250 g ai/ha, read-out: damage to plant, Foxtail, Giant (100=total damage to plant; 0=no damage to plant)
Procedure, shortened: (§2)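 Seedlings grown 8 days in soil in a glasshouse (24/16 °C day/night, 14 h light, 65% humidity) were sprayed post-emergence with compound in acetone/water 50:50 plus 0.5% Tween 20 at 15.625, 62.5 or 250 g/ha. Damage was scored after 13 days on a 0–100 scale (100 = total damage).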

[8] = test system: barnyardgrass (Echinochloa crus-galli); experiment: Test G Post-Emergence Protocol; conditions: Echinochloa crus-galli, post-emergence, 312 h; for pest or weed control at 15.625 g/ha: 15.625 g ai/ha, evaluated after 13 days (100=total damage to plant; 0=no damage to plant), read-out: Barnyardgrass damage rating; for pest or weed control at 62.5 g/ha: 62.5 g ai/ha, read-out: Barnyardgrass damage rating (100=total damage to plant; 0=no damage to plant); for pest or weed control at 62.5 g/ha / pest or weed control at 250 g/ha: evaluated after 13 days; for pest or weed control at 250 g/ha: 250 g ai/ha, read-out: damage to plant, Barnyardgrass (100=total damage to plant; 0=no damage to plant)
Procedure, shortened: as §2

corn (Zea mays) [9] = experiment: Test G Post-Emergence Protocol; conditions: Zea mays, post-emergence, 312 h; for plant injury at 15.625 g/ha: 15.625 g ai/ha, evaluated after 13 days (100=total damage to plant; 0=no damage to plant), read-out: Corn damage rating; for plant injury at 62.5 g/ha: 62.5 g ai/ha, read-out: Corn damage rating (100=total damage to plant; 0=no damage to plant); for plant injury at 62.5 g/ha / plant injury at 250 g/ha: evaluated after 13 days; for plant injury at 250 g/ha: 250 g ai/ha, read-out: damage to plant, Corn (100=total damage to plant; 0=no damage to plant)
Procedure, shortened: as §2

[10] = test system: velvetleaf (Abutilon theophrasti); experiment: Test G Post-Emergence Protocol; conditions: Abutilon theophrasti, post-emergence, 312 h; for pest or weed control at 15.625 g/ha: 15.625 g ai/ha, evaluated after 13 days (100=total damage to plant; 0=no damage to plant), read-out: Velvetleaf damage rating; for pest or weed control at 62.5 g/ha: 62.5 g ai/ha, read-out: Velvetleaf damage rating (100=total damage to plant; 0=no damage to plant); for pest or weed control at 62.5 g/ha / pest or weed control at 250 g/ha: evaluated after 13 days; for pest or weed control at 250 g/ha: 250 g ai/ha, read-out: damage to plant, Velvetleaf (100=total damage to plant; 0=no damage to plant)
Procedure, shortened: as §2

[11] = test system: ivy-leaved morning glory (Ipomoea hederacea); experiment: Test G Post-Emergence Protocol; conditions: Ipomoea, post-emergence, 312 h; for pest or weed control at 15.625 g/ha: 15.625 g ai/ha, evaluated after 13 days (100=total damage to plant; 0=no damage to plant), read-out: Morningglory, Ivy-leaved damage rating; for pest or weed control at 62.5 g/ha: 62.5 g ai/ha, read-out: Morningglory, Ivy-leaved damage rating (100=total damage to plant; 0=no damage to plant); for pest or weed control at 62.5 g/ha / pest or weed control at 250 g/ha: evaluated after 13 days; for pest or weed control at 250 g/ha: 250 g ai/ha, read-out: damage to plant, Morningglory, Ivy-leaved (100=total damage to plant; 0=no damage to plant)
Procedure, shortened: as §2

[12] = test system: redroot pigweed (Amaranthus retroflexus); experiment: Test G Post-Emergence Protocol; conditions: Amaranthus retroflexus, post-emergence, 312 h; for pest or weed control at 15.625 g/ha: 15.625 g ai/ha, evaluated after 13 days (100=total damage to plant; 0=no damage to plant), read-out: Pigweed, Redroot damage rating; for pest or weed control at 62.5 g/ha: 62.5 g ai/ha, read-out: Pigweed, Redroot damage rating (100=total damage to plant; 0=no damage to plant); for pest or weed control at 62.5 g/ha / pest or weed control at 250 g/ha: evaluated after 13 days; for pest or weed control at 250 g/ha: 250 g ai/ha, read-out: damage to plant, Pigweed, Redroot (100=total damage to plant; 0=no damage to plant)
Procedure, shortened: as §2

| SMILES | pest or weed control at 15.625 g/ha [1] [%] | pest or weed control at 62.5 g/ha [1] [%] | pest or weed control at 250 g/ha [1] [%] | pest or weed control at 15.625 g/ha [2] [%] | pest or weed control at 62.5 g/ha [2] [%] | pest or weed control at 250 g/ha [2] [%] | plant injury at 15.625 g/ha (corn (Zea mays) [3]) [%] | plant injury at 62.5 g/ha (corn (Zea mays) [3]) [%] | plant injury at 250 g/ha (corn (Zea mays) [3]) [%] | pest or weed control at 15.625 g/ha [4] [%] | pest or weed control at 62.5 g/ha [4] [%] | pest or weed control at 250 g/ha [4] [%] | pest or weed control at 15.625 g/ha [5] [%] | pest or weed control at 62.5 g/ha [5] [%] | pest or weed control at 250 g/ha [5] [%] | pest or weed control at 15.625 g/ha [6] [%] | pest or weed control at 62.5 g/ha [6] [%] | pest or weed control at 250 g/ha [6] [%] | pest or weed control at 15.625 g/ha [7] [%] | pest or weed control at 62.5 g/ha [7] [%] | also measured |
| --- | --- | --- | --- | --- | --- | --- | --- | --- | --- | --- | --- | --- | --- | --- | --- | --- | --- | --- | --- | --- | --- |
| Cc1nonc1NC(=O)[C@@H]1C(=O)N(C)C[C@H]1c1ccc(C(F)(F)F)cc1 (racemic) [Compound 1597] | 0 | 0 | 0 | 0 | 0 | 0 | 0 | 0 | 0 | 0 | 0 | 0 | 0 | 0 | 0 | 0 | 0 | 0 | 0 | 0 | pest or weed control at 250 g/ha [7]: 0%; pest or weed control at 15.625 g/ha [8]: 0%; pest or weed control at 62.5 g/ha [8]: 0%; pest or weed control at 250 g/ha [8]: 0%; plant injury at 15.625 g/ha (corn (Zea mays) [9]): 0%; plant injury at 62.5 g/ha (corn (Zea mays) [9]): 0%; plant injury at 250 g/ha (corn (Zea mays) [9]): 0%; pest or weed control at 15.625 g/ha [10]: 0%; pest or weed control at 62.5 g/ha [10]: 0%; pest or weed control at 250 g/ha [10]: 0%; pest or weed control at 15.625 g/ha [11]: 0%; pest or weed control at 62.5 g/ha [11]: 0%; pest or weed control at 250 g/ha [11]: 0%; pest or weed control at 15.625 g/ha [12]: 0%; pest or weed control at 62.5 g/ha [12]: 0%; pest or weed control at 250 g/ha [12]: 0% |
| CN1C[C@@H](c2ccc(C(F)(F)F)cc2)[C@H](C(=O)Nc2ccccc2Cl)C1=O (racemic) [Compound 1598] | 60 | 80 | 90 | 0 | 70 | 80 | 0 | 10 | 70 | 0 | 10 | 60 | 10 | 20 | 40 | 10 | 40 | 50 | 80 | 80 | pest or weed control at 250 g/ha [7]: 80%; pest or weed control at 15.625 g/ha [8]: 30%; pest or weed control at 62.5 g/ha [8]: 80%; pest or weed control at 250 g/ha [8]: 70%; plant injury at 15.625 g/ha (corn (Zea mays) [9]): 0%; plant injury at 62.5 g/ha (corn (Zea mays) [9]): 40%; plant injury at 250 g/ha (corn (Zea mays) [9]): 60%; pest or weed control at 15.625 g/ha [10]: 0%; pest or weed control at 62.5 g/ha [10]: 20%; pest or weed control at 250 g/ha [10]: 50%; pest or weed control at 15.625 g/ha [11]: 30%; pest or weed control at 62.5 g/ha [11]: 60%; pest or weed control at 250 g/ha [11]: 70%; pest or weed control at 15.625 g/ha [12]: 30%; pest or weed control at 62.5 g/ha [12]: 50%; pest or weed control at 250 g/ha [12]: 70% |
